Test results published in ChEMBL document CHEMBL4680162, “Synthesis and pharmacological evaluation of chlorin derivatives for photodynamic therapy of cholangiocarcinoma” (Eur J Med Chem, 2020).
Active and inactive are the calls of the source. No cut-off for these calls is given here.

Assays:
[1] = Phototoxicity in ICR mouse assessed as back skin weight at 1 mg/kg, iv followed by 10 mW/cm2 light irradiation for 10 mins at 1 day after drug challenge and measured after 1 day of light irradiation by H and E staining based microscopic analysis (reference value: 34.3 +/- 2.1 mg); assay type: organism-based; details: in vivo, 48 h, time 2 day
[2] = Dark toxicity in human QBC939 cells assessed as reduction in cell viability incubated under dark for 24 hrs measured after 24 hrs by MTT assay; assay type: cell-based; details: read-out: TC50
[3] = Induction of apoptosis in human QBC939 cells assessed as late apoptotic cells at 2 uM in presence of 2J/cm2 light irradiation measured after 2 hrs by annexin V-FITC and propidium iodide staining based flow cytometric analysis (reference value: 0.01 %); assay type: functional
[4] = Photodynamic antitumor activity against human QBC939 cells xenografted in BALB/c nude mouse assessed as tumor weight at 1 mg/kg, iv followed by laser light irradiation at 120 J/cm2 measured after 13 days; assay type: functional; details: time 13 day
[5] = Drug localization in lysosome of human QBC939 cells at 4 uM incubated for 4 hrs in dark by lyso-tracker blue based confocal microscopic method; assay type: ADME, subcellular; details: qbc939, 4 h
[6] = Absorption property of compound in poly-oxyethylene castor oil and PBS assessed as Q band maximum absorption wavelength by UV-visible spectrophotometric method; assay type: physicochemical; details: buffer
[7] = Phototoxicity in BALB/c nude mouse xenografted with QBC939 cells assessed as change in lung at 1 mg/kg, iv followed by laser light irradiation at 120 J/cm2 measured after 1 day of light irradiation by H and E staining based histological analysis; assay type: organism-based; details: in vivo, 24 h
[8] = Induction of apoptosis in human QBC939 cells assessed as viable cells at 2 uM in presence of 2J/cm2 light irradiation measured after 2 hrs by annexin V-FITC and propidium iodide staining based flow cytometric analysis (reference value: 99.6 %); assay type: functional; details: QBC939, light or radiation study, read-out: Activity
[9] = Induction of apoptosis in human QBC939 cells assessed as early apoptotic cells at 2 uM by annexin V-FITC and propidium iodide staining based flow cytometric analysis (reference value: 0.01 %); assay type: functional
[10] = Induction of apoptosis in human QBC939 cells assessed as necrotic cells at 2 uM by annexin V-FITC and propidium iodide staining based flow cytometric analysis; assay type: functional
[11] = Phototoxicity in BALB/c nude mouse xenografted with QBC939 cells assessed as change in liver at 1 mg/kg, iv followed by laser light irradiation at 120 J/cm2 measured after 1 day of light irradiation by H and E staining based histological analysis; assay type: organism-based; details: in vivo, 24 h
[12] = test system: QBC939; assay: Photodynamic antitumour activity against human QBC939 cells xenografted in BABL/c nude mouse assessed as increase in apoptotic cells at 1 mg/kg, iv measured after 1 day of light irradiation by TUNEL assay; assay type: functional, organism-based
[13] = Induction of singlet oxygen generation in DMF solution irradiated with 650 nanometer laser light in every 1 min by ESR assay; assay type: functional
[14] = test system: QBC939; assay: Photodynamic antitumor activity against human QBC939 cells xenografted in BALB/c nude mouse assessed as morphological change in tumor tissue at 1 mg/kg, iv followed by laser light irradiation at 120 J/cm2 measured after 1 day of light irradiation by H and E staining based histological analysis; assay type: functional, organism-based
[15] = Induction of apoptosis in human QBC939 cells assessed as viable cells at 2 uM in presence of 2J/cm2 light irradiation measured after 24 hrs by annexin V-FITC and propidium iodide staining based flow cytometric analysis (reference value: 99.6 %); assay type: functional; details: QBC939, light or radiation study, read-out: Activity
[16] = Induction of apoptosis in human QBC939 cells assessed as late apoptotic cells at 2 uM in presence of 2J/cm2 light irradiation measured after 24 hrs by annexin V-FITC and propidium iodide staining based flow cytometric analysis (reference value: 0.01 %); assay type: functional
[17] = Induction of apoptosis in human QBC939 cells assessed as viable cells at 2 uM by annexin V-FITC and propidium iodide staining based flow cytometric analysis (reference value: 99.99 %); assay type: functional; details: read-out: Activity
[18] = Phototoxicity against human QBC939 cells assessed as reduction in cell viability irradiated with 2 J/cm2 of 650 nanometer laser light preincubated for 24 hrs in dark and measured after 24 hrs by MTT assay; assay type: functional, cell-based; details: QBC939, light or radiation study
[19] = test system: QBC939; assay: Photodynamic antitumor activity against human QBC939 cells xenografted in BALB/c nude mouse assessed as decrease in tumor weight at 1 mg/kg, iv under dark condition measured after 13 days; assay type: functional, organism-based; details: time 13.0 day
[20] = Drug uptake in human QBC939 cells at 4 uM by fluorescence spectrophotometer analysis; assay type: ADME, cell-based; details: qbc939, 4 µM
[21] = Induction of apoptosis in human QBC939 cells assessed as late apoptotic cells at 2 uM by annexin V-FITC and propidium iodide staining based flow cytometric analysis; assay type: functional
[22] = Phototoxicity in ICR mouse assessed as neck skin weight at 1 mg/kg, iv followed by 10 mW/cm2 light irradiation for 10 mins at 1 day after drug challenge and measured after 1 day of light irradiation by H and E staining based microscopic analysis (reference value: 36.5 +/- 2.4 mg); assay type: organism-based; details: in vivo, 48 h, time 2 day
[23] = Emission property of compound in DMSO assessed as Q band emission wavelength by […]; assay type: physicochemical
[24] = Absorption property of the compound in DMSO assessed as Q band log absorption coefficient by UV-visible spectrophotometric method; assay type: physicochemical
[25] = Absorption property of the compound in DMF assessed as Q band log absorption coefficient by UV-visible spectrophotometric method; assay type: physicochemical
[26] = Drug uptake in nude mouse xenografted with QBC939 cells assessed as drug level in tumor tissue at 1 mg/kg, iv measured after 8 hrs by fluorescence imaging assay; assay type: ADME, organism-based, Neoplasm; details: in vivo
[27] = Phototoxicity in BALB/c nude mouse xenografted with QBC939 cells assessed as change in spleen at 1 mg/kg, iv followed by laser light irradiation at 120 J/cm2 measured after 1 day of light irradiation by H and E staining based histological analysis; assay type: organism-based; details: in vivo, 24 h
[28] = Absorption property of compound in poly-oxyethylene castor oil and PBS assessed as Q band log absorption coefficient by UV-visible spectrophotometric method; assay type: physicochemical; details: buffer
[29] = Drug uptake in nude mouse xenografted with QBC939 cells assessed as drug level in tumor tissue at 1 mg/kg, iv measured after 24 hrs by fluorescence imaging assay; assay type: ADME, organism-based, Neoplasm; details: in vivo
[30] = Induction of singlet oxygen generation in DMSO assessed as bleaching rate at 10 uM under 650 nanometer light irradiation; assay type: functional
[31] = Phototoxicity in ICR mouse assessed as ear weight at 1 mg/kg, iv followed by 10 mW/cm2 light irradiation for 10 mins at 1 day after drug challenge and measured after 1 day of light irradiation by H and E staining based microscopic analysis (reference value: 12.4 +/- 1.5 mg); assay type: organism-based; details: in vivo, 48 h, time 2 day
[32] = Drug uptake in mouse assessed as drug level in plasma at 1 mg/kg, iv measured upto 24 hrs by fluorometric method; assay type: ADME, organism-based; details: in vivo
[33] = Induction of apoptosis in human QBC939 cells assessed as necrotic cells at 2 uM in presence of 2J/cm2 light irradiation measured after 24 hrs by annexin V-FITC and propidium iodide staining based flow cytometric analysis (reference value: 0.02 %); assay type: functional

- Drug uptake [5]: Active
- Activity [6]: 655 nm
- Drug uptake [20]: Active
- Activity [23]: 652 nm
- Activity [24]: 4.02
- Activity [25]: 3.02
- Drug uptake [26]: Active
- Activity [28]: 4.2
- Drug uptake [29]: Active
- Drug uptake [32]: Active
Compound: COC(=O)C1(C(=O)O)C2c3nc(c(-c4ccccc4)c4ccc([nH]4)c(-c4ccccc4)c4nc(c(-c5ccccc5)c5ccc([nH]5)c3-c3ccccc3)C=C4)C21 (stereo not drawn)
- Activity [1]: 35.1 mg
- CC50 at 48 h [2]: > 8 µM
- Activity [3]: 14.73%
- Activity [4]: 10%
- Activity [7]: Non-Toxic
- viability at 2 µM [8]: 51.3%
- Activity [9]: 0.04%
- Activity [10]: 3.6%
- Activity [11]: Non-Toxic
- Activity [12]: Active
- Activity [13]: Active
- Activity [14]: Active
- viability at 2 µM [15]: 2.1%
- Activity [16]: 69.12%
- viability at 2 µM [17]: 94.3%
- IC50 [18]: 1.36 µM
- Activity [19]: inactive
- Activity [21]: 2.06%
- Activity [22]: 37.9 mg
- Activity [27]: Non-Toxic
- Activity [30]: Active
- Activity [31]: 12.8 mg
- Activity [33]: 7.79%
